{
  "source": "paper PMC9108603",
  "about": "“Microbial Metabolite Inspired β‐Peptide Polymers Displaying Potent and Selective Antifungal Activity” (Advanced Science, 2022)",
  "key": {"A. Baumannii ATCC 747": {"tested_on": "A. Baumannii ATCC 747", "assay": "Antibacterial MIC test", "format": "cell-based", "conditions": "1.0 × 10^5 CFU/mL in MH medium", "text": "(§1) aforementioned antifungal assay. Gram-positive bacteria ( S. aureus ATCC 6538, S."}, "B. subtilis BR151": {"tested_on": "B. subtilis BR151", "assay": "Antibacterial MIC test", "format": "cell-based", "conditions": "1.0 × 10^5 CFU/mL in MH medium", "text": "as §1"}, "E. coli ATCC 25922": {"tested_on": "E. coli ATCC 25922", "assay": "Antibacterial MIC test", "format": "cell-based", "conditions": "1.0 × 10^5 CFU/mL in MH medium", "text": "as §1"}, "[1]": {"tested_on": "K. pneumoniae ATCC 700603", "assay": "Antibacterial MIC test", "format": "cell-based", "conditions": "1.0 × 10^5 CFU/mL in MH medium", "text": "as §1"}, "S. aureus ATCC 6538": {"tested_on": "S. aureus ATCC 6538", "assay": "Antibacterial MIC test", "format": "cell-based", "conditions": "1.0 × 10^5 CFU/mL in MH medium", "text": "as §1"}, "[2]": {"tested_on": "S. epidermidis ATCC 49134", "assay": "Antibacterial MIC test", "format": "cell-based", "conditions": "1.0 × 10^5 CFU/mL in MH medium", "text": "as §1"}, "[3]": {"tested_on": "C. albicans biofilm formation", "assay": "Inhibition of biofilm formation (MTT)", "format": "cell-based, Candida albicans", "conditions": "RPMI, 37 °C, 48 h, inhibits 80% of biofilm formation", "procedure": "fresh non-treated cell suspension was used as a control. The bright field and FITC fluorescence were collected under 100× oil immersion lenses, with representative areas in the images electronically amplified sixfold.\nAnti-biofilms. This study was conducted in 96-well plates (flat bottom and tissue-culture treated) by following the reported protocol with slight modifications. On each plate, wells containing RPMI only and cells in medium without any antifungal agent were used as the negative and positive control, respectively.\nFor biofilm formation: Freshly cultured fungal cells were collected to prepare the working suspension at 1.0 × 10^6 CFU/mL in RPMI. A two-fold serial dilution for each antifungal agent was prepared using a corresponding medium in a 96-well plate to give 100 µL of polymer solution in each well. 100 µL of the working suspension was added to each […]\nfollowed by addition of 100 µL MTT solution (1 mg/mL). The MTT assay protocol was the same as the above mentioned protocol in fibroblast cell toxicity assay. This value was calculated from [% biofilm growth = (A polymer – Ablank)/(Acontrol – Ablank) × 100] and plotted against polymer concentration to give the dose-response graphs for inhibition of biofilm formation for each antifungal agent. The SMIC 80 value is the minimum concentration of a given agent that is necessary to inhibit 80% of fungal biofilm formation. […]"}, "C. albicans (K1 strain)": {"tested_on": "C. albicans (K1 strain)", "assay": "Mitochondrial membrane potential (JC-1)", "format": "cell-based, Candida albicans", "conditions": "50 μg/mL PDAP20, 2 h, 3.0 × 10^6 CFU/mL; green = early stage of apoptosis", "procedure": "NAC concentration without affecting the normal cell growth. Wells containing cells in RPMI and 40 mM H 2O2 was used as positive controls. Cell suspension of C. albicans (K1 strain) at 6.0 × 10^6 CFU/mL was treated with 20 μM 2,7-dichlorodi-hydrofluorescein diacetate (DCFHDA) for 20 min. Then 50 µL of the cell suspension was added to each well, except the blank control (RMPI containing DCFHDA without cells). The fluorescence intensity of the induced ROS production was measured every 30 min using a plate reader at λ ex = 485 nm and λem = 530 nm. The confocal observation of ROS production was conducted after C. albicans (K1 strain) suspension at 3.0 × 10^6 CFU/mL was incubated with 50 μg/mL CPM-PDAP 20 for 2 h. […]\nDetection of mitochondrial membrane potential. Changes in mitochondrial membrane potential in C. albicans after incubation with PDAP 20 were analyzed using JC-1 as previously described. Mitochondrial membrane potential was detected with the fluorescent dye JC-1, which exists as aggregates (red) in normal cells with polarized mitochondria, whereas exists as monomers (green) in apoptotic cells with depolarized mitochondria. […]\nDNA fragmentation assay. Apoptosis induced DNA fragments in C. albicans cells were analyzed using the TdT-mediated dUTP Nick-End Labeling (TUNEL) method. […]"}, "C. neoformans": {"tested_on": "C. neoformans", "assay": "MIC assay (in vitro antifungal assay)", "format": "cell-based", "conditions": "Cryptococcus neoformans, 48 h", "procedure": "In vitro antifungal assays. The MIC assays for C. albicans (K1, SC5314, Gu5, ATCC90028, R01, R02, R03 and R04 strains) and C. neoformans (H99, MYA737 and JEC21 strains) were conducted according to a previously described protocol. The cultured fungal cells were collected at 2.5 × 10^3 CFU/mL in RPMI 1640 medium to give the working suspension. Two- […]\nplate to give 50 µL compound solution in each well. Then 50 µL of the cell suspension was added to each well. Wells containing cells in RPMI without any polymer or antifungal drug were used as drug-free controls, and wells containing RPMI medium only were used as cell-free controls. The plate was gently stirred for 10 seconds and then incubated at 30 °C. After C. albicans and C. neoformans cells were incubated for 24 h and 48 h, respectively, fungal cell growth was checked visually. […]"}},
  "note": "Read-outs that look alike come from different tables or passages of the source.",
  "data": [
    {"compound": "poly(DL‐diaminopropionic acid) [PDAP20]", "values": [
      {"measurement": "MIC A. baumannii", "setting": "A. Baumannii ATCC 747", "result": "> 200", "unit": "µg/mL"},
      {"measurement": "MIC B. subtilis", "setting": "B. subtilis BR151", "result": 50, "unit": "µg/mL"},
      {"measurement": "MIC E. coli", "setting": "E. coli ATCC 25922", "result": 200, "unit": "µg/mL"},
      {"measurement": "MIC K. pneumoniae", "setting": "[1]", "result": "> 200", "unit": "µg/mL"},
      {"measurement": "MIC S. aureus", "setting": "S. aureus ATCC 6538", "result": "> 200", "unit": "µg/mL"},
      {"measurement": "MIC S. epidermidis", "setting": "[2]", "result": 200, "unit": "µg/mL"},
      {"measurement": "Concentration that resists biofilm formation (SMIC80)", "setting": "[3]", "result": 6.3, "unit": "µg/mL"},
      {"measurement": "Mitochondrial membrane potential, JC‐1 stain", "setting": "C. albicans (K1 strain)", "result": "cytosol green fluorescence"}
    ]},
    {"compound": "C[C@@H]1[C@H](O)[C@@H](C)/C=C/C=C/C=C/C=C/C=C/C=C/C=C/[C@H](O[C@@H]2O[C@H](C)[C@@H](O)[C@H](N)[C@@H]2O)C[C@@H]2O[C@](O)(C[C@@H](O)C[C@@H](O)[C@H](O)CC[C@@H](O)C[C@@H](O)CC(=O)O[C@H]1C)C[C@H](O)[C@H]2C(=O)O", "note": "[AmpB, amphotericin B]", "values": [
      {"measurement": "MIC", "setting": "C. neoformans; read-out: MIC C. neoformans H99", "result": 1.6, "unit": "µg/mL"},
      {"measurement": "MIC", "setting": "C. neoformans; read-out: MIC C. neoformans JEC21", "result": 1.6, "unit": "µg/mL"},
      {"measurement": "MIC", "setting": "C. neoformans; read-out: MIC C. neoformans MYA737", "result": 1.6, "unit": "µg/mL"}
    ]}
  ]
}
